Patent US20210113501A1, “METHOD OF ADMINISTERING BETA-HYDROXY-BETA-METHYLBUTYRATE (HMB)” (Metabolic Technologies, Inc., priority 2009, published 2021)

Columns and labels:
C2C12 myotubes = conditions: cited from earlier work
[1] = after HMB is fed; cited from earlier work
[2] = Study 2: plasma HMB and urinary HMB excretion over 24 h; format: in vivo, human
Excerpt: Human subjects. In study 1, four male and four female college-aged subjects were studied. In study 2, an additional four male and four female college-aged subjects were studied. The protocols for both studies were approved by the Iowa State University IRB and each subject gave informed consent to participate in the study. Due to the nature of the treatments, neither the subjects nor the researchers could be blinded.
Treatments. The same treatments were given to the subjects in both study groups. The three treatments were given in random order to each subject with at least a one week washout period between treatments. The treatments were supplied by Metabolic Technologies, Inc. (MTI, Ames, Iowa) and were prepared with food grade ingredients. One gram of CaHMB or the equivalent HMB in free acid in a gel form was administered to the subjects. The CaHMB capsules were obtained from a commercial supplement manufacturer (Optimum Nutrition, Aurora, Ill.) while the HMB-acid gel was prepared at MTI laboratories. Briefly, the HMB-acid was adjusted to a pH 4.5 with potassium carbonate (K2CO3) and flavors and sweeteners were then added. The 1.0 g CaHMB capsule was taken with 355 mL of water (approx. 12 oz.). The free acid gel dosage was 0.80 g and was equivalent to the free acid contained in the CaHMB in the capsule. The free acid gel treatments were either swallowed (FASW) or held sublingual for 15 seconds and then swallowed (FASL). FASW consisted of expelling the entire dose into the mouth in a 3 ml syringe, swallowing, and then following this with 355 mL of water. FASL subjects were instructed to place the entire dosage under the tongue and hold the dosage for 15 sec before swallowing. They then rinsed and followed the dose with 355 mL of water.
Study 2 design. Study 2 was conducted similar to study 1 with the following modifications. In study 2, plasma levels of HMB were measured for 1440 min (24 h) and total urine collection was also performed for measurement of urinary HMB excretion during this period. After the 180 min blood sample, the subjects were allowed to leave the laboratory and were instructed to return to the laboratory for additional blood samples at 360, 720, and 1440 min after the ingestion of the supplement. As in study 1, each subject took each of the treatments with at least a one week washout period between treatments. Samples were again stored frozen at −70° C. for analysis of plasma and urinary HMB concentrations. Pre-ingestion, 180 min and 1440 min blood samples were again assayed for the same measurements already for study 1. Subjects were provided with a standardized lunch after the 180 min blood sampling and instructed to eat this at approximately 240 min post ingestion. Following the 720 min blood sample, subjects were instructed to eat a normal evening meal before 10 pm. Subjects reported back to the laboratory the following morning for the fasted 1440 min blood sample. A urine collection container was provided and subjects collected all urine produced during the experimental 24 h experimental period. The urine was stored refrigerated when not being collected. Urine volumes were measured and samples of the total urine collection were taken and stored frozen at −70° C. until analyzed for HMB.
HMB analysis. Plasma and urine HMB were analyzed by gas chromatography/mass spectrometry (GC/MS) as previously described.(27)
Calculations and statistics. Areas under the curves were calculated for each subject using the trapezoidal method that sums the area above baseline.(51) Half-life of plasma HMB was calculated for study 2. The following equations were used:
k=(ln(Cpeak)−ln(Ctrough))/Tinterval
Peak plasma concentrations for each subject were used for Cpeak. […] Tpeak was the time at which Cpeak was measured and Tinterval is the time from Tpeak until the time at Ctrough (720 min). The extracellular fluid compartment was assumed to be 20% of body weight and calculated using equation 3 below(1). […]

[3] = tested on: protein degradation in muscle; assay: Urinary 3-methylhistidine to creatinine ratio after an acute exercise bout; format: in vivo, human
Experimental: (§1) Subjects: We conducted a study at the Iowa State University Health and Human Performance Laboratory; this study was approved by the Iowa State University Institutional Review Board, and was registered at ClinicalTrials.gov (NCT01150526). We recruited 12 men and 13 women between the ages of 20 and 36 from the Iowa State University community and surrounding area.
(§2) Treatments: The experimental design is depicted in FIG. 8.
Five treatments were administered as follows: Treatment 1: Placebo. This group received a placebo capsule and a placebo syringe dosage at each dosage administration. Treatment 2: CaHMB pre-exercise. This group received a CaHMB capsule and a placebo syringe dosage 30 min prior to the acute exercise bout. The remaining additional dosages during the study consisted of one placebo capsule and one placebo syringe dosage. Treatment 3: HMB-acid gel pre-exercise. This group received a placebo capsule and a syringe dosage of HMB-acid gel 30 min prior to the acute exercise bout. The remaining additional dosages during the study consisted of one placebo capsule and one placebo syringe dosage. Treatment 4: CaHMB pre- and post-exercise. This group received a CaHMB capsule and a placebo syringe dosage at all administration times during the study. Treatment 5: HMB-acid gel pre- and post-exercise. This group received a syringe dosage of HMB-acid gel and one placebo capsule at all administration times during the study.
To blind the treatments to both the researchers and subjects, each subject took a capsule and syringe dosage of supplement at each administration. The capsules contained either one gram of calcium lactate (Placebo) or one gram of calcium β-hydroxy-β-methylbutryate (CaHMB). The syringe dosages were formulated to be similar in taste and appearance and contained either 0.8 g of corn syrup (Placebo) or 0.8 g of β-hydroxy-β-methylbutryate free acid, the same amount of HMB as in the capsule dosage. The 3 daily doses provided the same total HMB dosage (2.4 g as calcium HMB in the capsules or 2.4 g as HMB free acid in the syringes).
Eccentric Exercise Bout: Subjects refrained from vigorous exercise for three days before reporting to the laboratory. All subjects were studied after an overnight fast. […] Subjects then consumed their assigned supplement and 30 minutes later the eccentric exercise session was performed. The exercise consisted of 50 maximal effort contractions of knee extensors while attempting to resist the Biodex lever arm as it moves the knee joint from full extension to 90 degrees flexion; this is similar to letting a heavy weight down slowly while in a seated position. Each contraction lasted about 2 seconds and 12 seconds were allowed between contractions. This protocol was performed on the right leg followed by the left leg. The subjects received 2 more daily dosages of treatment (placebo or HMB) with instructions to take the dosages at lunch and dinner. For the next 4 days the subjects returned to the laboratory fasted each morning, had blood taken and urine collected and then consumed the morning dosage of their supplement. The subjects were again given the 2 remaining daily supplement dosages with instructions to take them at lunch and dinner.
Serum and Urine Samples: A fasting blood sample was taken from a superficial forearm vein each morning when the subjects reported to the laboratory for testing. Additionally a clean catch urine sample was collected at this time. Serum CPK was analyzed by a commercial laboratory (Quest Diagnostics, Madison N.J.). Urine 3-Methylhistidine (3MH) was analyzed by a previously published GC/MS method (9). Urinary creatinine was analyzed by colorimetric assay (Cayman Chemical Company, Ann Arbor, Mich.). The urinary 3MH data was normalized to urinary creatinine and expressed as 3MH:creatinine ratio, μmol:mg.
(§3) Statistics: Data were analyzed using the mixed model procedure in Statistical Analysis System for Windows (Release 9.1.3, SAS Institute, Cary, N.C.). […]

muscle damage = assay: Serum CPK after an acute eccentric exercise bout; format: in vivo, human; conditions: pre- and post exercise dosing (Treatment 5)
Experimental: as §1, §2
Five treatments were administered as follows: Treatment 1: Placebo. This group received a placebo capsule and a placebo syringe dosage at each dosage administration. Treatment 2: CaHMB pre-exercise. […]
Serum and Urine Samples: A fasting blood sample was taken from a superficial forearm vein each morning when the subjects reported to the laboratory for testing. […] Serum CPK was analyzed by a commercial laboratory (Quest Diagnostics, Madison N.J.). Urine 3-Methylhistidine (3MH) was analyzed by a previously published GC/MS method (9). Urinary creatinine was analyzed by colorimetric assay (Cayman Chemical Company, Ann Arbor, Mich.). The urinary 3MH data was normalized to urinary creatinine and expressed as 3MH:creatinine ratio, μmol:mg.
as §3

## CC(C)(O)CC(=O)O [HMB, β-Hydroxy-β-methylbutyrate]
C2C12 myotubes
  phosphorylation of 4EBP1Thr65/70: +51%
  phosphorylation of AKTSer473: +129%
  phosphorylation of S6K1Thr389: +50%
C2C12 myotubes; incubation with rapamycin
  AKT phosphorylation: +188%
[1]
  loss of HMB to urine: 20-50%

## CC(C)(O)CC(=O)O [HMB-acid gel, β-hydroxy-β-methylbutryate free acid]
[2]; Study 2
  increase in HMB plasma clearance compared with CaHMB: 25%
[2]; Study 2, over 24 hours, listed as free acid gel
  AUC greater than for CaHMB capsules: +14.8%
[2]; based upon plasma clearance
  estimated amount of HMB retained greater than CaHMB: 25%
[2]; free acid versus CaHMB
  peak plasma level earlier than with CaHMB: ~90 min
[2]; peak levels
  plasma level relative to oral CaHMB: ~2 fold
[3]; Baseline, dosed pre- and post exercise (Treatments 4, 5)
  3MH:Cr: 0.225 ± 0.034 µmol/mg
[3]; Baseline, dosed pre-exercise only (Treatments 2, 3)
  3MH:Cr: 0.173 ± 0.028 µmol/mg
[3]; at 24 h, dosed pre- and post exercise (Treatments 4, 5)
  3MH:Cr: 0.213 ± 0.025 µmol/mg
[3]; at 24 h, dosed pre-exercise only (Treatments 2, 3)
  3MH:Cr: 0.213 ± 0.037 µmol/mg
[3]; at 48 h, dosed pre- and post exercise (Treatments 4, 5)
  3MH:Cr: 0.208 ± 0.012 µmol/mg
[3]; at 48 h, dosed pre-exercise only (Treatments 2, 3)
  3MH:Cr: 0.190 ± 0.014 µmol/mg
[3]; at 72 h, dosed pre- and post exercise (Treatments 4, 5)
  3MH:Cr: 0.175 ± 0.013 µmol/mg
[3]; at 72 h, dosed pre-exercise only (Treatments 2, 3)
  3MH:Cr: 0.172 ± 0.013 µmol/mg
[3]; at 96 h, dosed pre- and post exercise (Treatments 4, 5)
  3MH:Cr: 0.186 ± 0.043 µmol/mg
[3]; at 96 h, dosed pre-exercise only (Treatments 2, 3)
  3MH:Cr: 0.202 ± 0.020 µmol/mg
[3]; pre- and post exercise dosing
  protein degradation (3MH:Cr ratio), trend: no increase and even a decrease in protein degradation
Muscle damage; 24 h post exercise, P<0.03
  blunting of the exercise-induced increase in serum CPK: up to 64%
Muscle damage; 48 h post exercise, P<0.005
  blunting of the exercise-induced increase in serum CPK: 86%

## CC(C)C[C@H](N)C(=O)O [leucine]
C2C12 myotubes
  phosphorylation of S6K1Thr389: +17%
